Tests used:
[1] = Solubility of rotigotine in matrix components; type: physicochemical
[2] = as described in WO 2009/068520; cited from earlier work

CCCN(CCc1cccs1)[C@H]1CCc2c(O)cccc2C1 [Rotigotine]
Solubility in a crystallization inhibitor such as polyvinylpyrrolidone [1]: good soluble | Solubility in silicone adhesives [1]: very poorly soluble

CCCN(CCc1cccs1)[C@H]1CCc2c(O)cccc2C1 [polymorphic form II]
Thermodynamic stability of the polymorphic form [2]: thermodynamically more stable than the polymorphic form I

Reference: patent US20230218539A1, “TRANSDERMAL THERAPEUTIC SYSTEM COMPRISING THE INGREDIENT ROTIGOTINE AND AT LEAST ONE NON-AMINE-RESISTANT SILICONE ADHESIVE” (Luye Pharma Switzerland AG, priority 2020, published 2023)
